Measurements as given in patent US20150010928A1, “MEANS AND METHODS FOR ASSESSING AN ENDOCRINE DISEASE OR DISORDER” (priority 2012, published 2015).
Where a name gives a salt, the structure may show the parent alone. Marks after values point to notes of the source that are not given here. Values belong to the compound of their own block, whether it stands above or below them.

How the values were obtained:
[1] = tested on: female rats; assay: Plasma metabolite profiling (GC-MS, LC-MS, SPE-LC-MS) in female rats dosed once daily over 28 days (OECD 407); assay type: in vivo, rat; parameters: key to 5-O-Methylsphingosine (d18:1) / Isopalmitic acid (C16:0) / Valine / Alanine / Ketoleucine / Serine / Lactate / Arginine: ratio of treated group mean to untreated control mean; settings: for Alanine / Arginine / Ketoleucine / Lactate / Proline / Serine / Valine: Table 17b
Description: Each dose group in the studies consisted of five rats per sex. Additional groups of each 5 male and female animals served as controls. […] All animals of the animal population were kept under the same constant temperature (20-24±3° C.) and the same constant humidity (30-70%). The animals of the animal population were fed ad libitum. The food to be used was essentially free of chemical or microbial contaminants. Drinking water was also offered ad libitum. Accordingly, the water was free of chemical and microbial contaminants as laid down in the European Drinking Water Directive 98/83/EG. The illumination period was 12 hours light followed by 12 hours darkness (12 hours light, from 6:00 to 18:00, and 12 hours darkness, from 18:00 to 6:00). […] The test substances (compounds) in the Tables 1 to 17 below were dosed and administered as described in the Table 18.
In the morning of day 7, 14, and 28, blood was taken from the retroorbital venous plexus from fasted anaesthetized animals. From each animal, 1 ml of blood was collected with EDTA as anticoagulant. The samples were centrifuged for generation of plasma. All plasma samples were covered with a N2 atmosphere and then stored at −80° C. until analysis.
For mass spectrometry-based metabolite profiling analyses plasma samples were extracted and a polar and a non-polar (lipid) fraction was obtained. For GC-MS analysis, the non-polar fraction was treated with methanol under acidic conditions to yield the fatty acid methyl esters. Both fractions were further derivatised with O-methyl-hydroxyamine hydrochloride and pyridine to convert Oxogroups to O-methyloximes and subsequently with a silylating agent before analysis. In LC-MS analysis, both fractions were reconstituted in appropriate solvent mixtures. HPLC was performed by gradient elution on reversed phase separation columns. Mass spectrometric detection which allows target and high sensitivity MRM (Multiple Reaction Monitoring) profiling in parallel to a full screen analysis was applied as described in WO2003073464.
Steroids and their metabolites were measured by online SPE-LC-MS (Solid phase extraction-LC-MS).
Following comprehensive analytical validation steps, the data for each analyte were normalized against data from pool samples. These samples were run in parallel through the whole process to account for process variability. The significance of treatment group values specific for sex, treatmentduration and metabolite was determined by comparing means of the treated groups to the means of the respective untreated control groups using WELCH-test and quantified with treatment ratios versus control and p-values.
The identification of the most important biomarkers per toxicity pattern was done by a ranking of the analytes in the tables below. Therefore the metabolic changes in reference treatments of a given pattern (shown in the table) were compared with changes of the same metabolite in other unrelated treatments. […] The maximum absolute value of the respective TVALUE was taken to indicate the most important metabolite for the pattern.

[2] = tested on: male rats; assay: Plasma metabolite profiling (GC-MS, LC-MS, SPE-LC-MS) in male rats dosed once daily over 28 days (OECD 407); assay type: in vivo, rat; settings: high dose, Table 14b
Summary of the method: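 Polar and lipid fractions profiled by GC-MS and LC-MS/MRM, steroids by online SPE-LC-MS; pool-normalized data compared to controls by Welch test as treatment ratios and p-values.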

[3] = female rats, plasma, high dose, day 7
[4] = female rats, plasma, high dose, day 14
[5] = female rats, plasma, high dose, day 28

Glycine, ratio versus control [1, 3]: 1.53 * | Lysine, ratio versus control [1, 3]: 0.8 * | Lysophosphatidylcholine (C17:0), ratio versus control [1, 3]: 0.74 * | Phosphatidylcholine (C18:0, C20:3), ratio versus control [1, 3]: 0.73 * | Phosphatidylcholine (C18:0, C22:6), ratio versus control [1, 3]: 0.87 * | Proline, ratio versus control [1, 3]: 1.16 * | TAG (C16:0, C18:2), ratio versus control [1, 3]: 2.05 * | TAG (C18:2, C18:3), ratio versus control [1, 3]: 1.84 * | TAG (DAG-Fragment), ratio versus control [1, 3]: 1.8 * | TAG No 059, ratio versus control [1, 3]: 1.61 * | Thyroxine (T4), ratio versus control [1, 3]: 1.36^ | Coenzyme Q9, ratio versus control [1, 4]: 1.29 * | Glycine, ratio versus control [1, 4]: 1.51 * | Lysine, ratio versus control [1, 4]: 0.61 * | Lysophosphatidylcholine (C17:0), ratio versus control [1, 4]: 0.72 * | Phosphatidylcholine (C16:0, C20:5), ratio versus control [1, 4]: 1.25 * | Phosphatidylcholine (C18:0, C20:3), ratio versus control [1, 4]: 0.86 * | Phosphatidylcholine (C18:0, C22:6), ratio versus control [1, 4]: 0.85 * | Proline, ratio versus control [1, 4]: 1.2 * | TAG (C16:0, C18:2), ratio versus control [1, 4]: 1.27 * | TAG (C18:2, C18:3), ratio versus control [1, 4]: 1.31 * | TAG (DAG-Fragment), ratio versus control [1, 4]: 1.4 * | TAG No 059, ratio versus control [1, 4]: 1.47 * | Thyroxine (T4), ratio versus control [1, 4]: 2.5 * | Coenzyme Q9, ratio versus control [1, 5]: 1.31 * | Glycine, ratio versus control [1, 5]: 1.4 * | Lysine, ratio versus control [1, 5]: 0.81 * | Lysophosphatidylcholine (C17:0), ratio versus control [1, 5]: 0.72 * | Phosphatidylcholine (C18:0, C20:3), ratio versus control [1, 5]: 0.81 * | Phosphatidylcholine (C18:0, C22:6), ratio versus control [1, 5]: 0.72 * | TAG (C16:0, C18:2), ratio versus control [1, 5]: 1.95 * | TAG (C18:2, C18:3), ratio versus control [1, 5]: 1.64 * | TAG (DAG-Fragment), ratio versus control [1, 5]: 1.76 * | TAG No 059, ratio versus control [1, 5]: 1.61 * | Thyroxine (T4), ratio versus control [1, 5]: 1.57 * | Coenzyme Q9, ratio versus control ([1]; rat, in vivo): 1.18 * | Proline, ratio versus control ([1]; rat, in vivo): 1.14 * | Cholesterol ([2]; m7): 0.44 | Choline plasmalogen No 02 ([2]; m7): 0.67 | Lignoceric acid (C24:0) ([2]; m7): 0.45 | Sphingomyelin (d18:1, C16:0) ([2]; m7): 0.52 | Sphingomyelin (d18:2, C16:0) ([2]; m7): 0.82 | erythro-Sphingosine (d18:1) ([2]; m7): 0.38 | Cholesterol ([2]; m14): 0.47 | Choline plasmalogen No 02 ([2]; m14): 0.69 | Lignoceric acid (C24:0) ([2]; m14): 0.39 | Sphingomyelin (d18:1, C16:0) ([2]; m14): 0.62 | Sphingomyelin (d18:2, C16:0) ([2]; m14): 0.78 | erythro-Sphingosine (d18:1) ([2]; m14): 0.49 | Cholesterol ([2]; m28): 0.63 | Choline plasmalogen No 02 ([2]; m28): 0.65 | Lignoceric acid (C24:0) ([2]; m28): 0.64 | Sphingomyelin (d18:1, C16:0) ([2]; m28): 0.65 | Sphingomyelin (d18:2, C16:0) ([2]; m28): 0.63 | erythro-Sphingosine (d18:1) ([2]; m28): 0.57
Compound: O=C(c1ccc(OCCN2CCCCC2)cc1)c1c(-c2ccc(O)cc2)sc2cc(O)ccc12 [Raloxifene Hydrochloride]

Isopalmitic acid (C16:0) ([1]; f7, female rats, high dose, Table 17a): 1.46 * | Alanine ([1]; f7, female rats, high dose): 0.83 | Arginine ([1]; f7, female rats, high dose): 0.85 | Ketoleucine ([1]; f7, female rats, high dose): 0.72 | Lactate ([1]; f7, female rats, high dose): 0.56 | Proline ([1]; f7, female rats, high dose): 0.91 | Serine ([1]; f7, female rats, high dose): 1 | Valine ([1]; f7, female rats, high dose): 0.92 | Alanine ([1]; f14, female rats, high dose): 0.81 | Arginine ([1]; f14, female rats, high dose): 0.73 | Ketoleucine ([1]; f14, female rats, high dose): 0.71 | Lactate ([1]; f14, female rats, high dose): 1.24 | Proline ([1]; f14, female rats, high dose): 0.81 | Serine ([1]; f14, female rats, high dose): 0.91 | Valine ([1]; f14, female rats, high dose): 0.72 | Isopalmitic acid (C16:0) ([1]; f28, female rats, high dose, Table 17a): 1.52 * | Alanine ([1]; f28, female rats, high dose): 0.92 | Arginine ([1]; f28, female rats, high dose): 0.93 | Ketoleucine ([1]; f28, female rats, high dose): 0.67 | Lactate ([1]; f28, female rats, high dose): 0.65 | Proline ([1]; f28, female rats, high dose): 1.03 | Serine ([1]; f28, female rats, high dose): 1.06 | Valine ([1]; f28, female rats, high dose): 0.98 | Isopalmitic acid (C16:0) ([1]; rat, in vivo): 1.41 *
Compound: CN(CCOc1ccc(CC2SC(=O)NC2=O)cc1)c1ccccn1 (stereo not shown) [Rosiglitazone maleate]
